The values that follow come from US20090137593A1, “4-AMINO-2,6-DIMETHYLPHENOL COMPOUND, PROCESS FOR ITS PREPARATION AND PHARMACEUTICAL COMPOSITION COMPRISING THE SAME” (AZIEN CHIM RIUNITE ANGEL FRANC A.C.R.A.F. S.P.A., priority 2006, published 2009).

Counter-ions that a name gives are not always drawn. Bounds are passed on as bounds.

The test system of assay [1] is 5-LO-mediated bronchoconstriction. To be noted: Sakuma Y et al., Prostaglandins, 1991; cited from earlier work.
Assay [2] has the same test system. Nature of the assay: Effect on 5-LO-mediated bronchoconstriction in vivo (ovalbumin-sensitized guinea pigs, intratracheal pressure). To be noted: Cavia porcellus, 100 mg/kg ip, 30 minutes before ovalbumin 15 μg/kg iv, read-out: percentage of inhibition of bronchoconstriction. As for the experimental part: Guinea pigs weighing 250-400 g were used.
The animals were sensitized by administration on days 1 and 8 of ovalbumin (0.5 μg/animal, ip). Between days 19 and 23 after the sensitization, the capacity of ovalbumin (15 μg/kg, iv) to induce bronchoconstriction was tested by measuring the increase in intratracheal pressure.
On the day of the test, 30 minutes after administration of Compound 2 (100 mg/kg, ip), the animals were treated with mepiramine (2 mg/kg, iv), indomethacin (10 mg/kg, iv) and propranolol (0.1 mg/kg, iv), and then received ovalbumin (15 μg/kg, iv) to induce bronchoconstriction. The control animals received intraperitoneally only the vehicle used (methylcellulose) for the administration of the tested compound.
The effects on 5-LO-mediated bronchoconstriction in vivo were evaluated by measuring the intratracheal pressure, and are expressed as a percentage of inhibition of bronchoconstriction.

Assay [3] has as its system nephritis induced by anti-GBM antibodies. Nature of the assay: Effects on nephritis induced by anti-GBM antibodies (proteinuria over 24 hours). Type of assay: in vivo, Male WKY rats. To be noted: Rattus norvegicus, WKY rats, 100 mg/kg ip, 2 administrations per day, tenth day, read-out: percentage of inhibition of the amount of protein excreted (anti-GBM nephritis). How it is done:
This test allows evaluation in vivo of the effects on renal damage induced by the inflammatory response following the administration of anti-GBM antibodies (anti-glomerular basal membrane antibodies). Male WKY rats weighing 180-220 g were used. The nephritis was induced by intravenous injection of anti-GBM antibodies. Immediately after administration of the antibody and 6 hours later, Compound 2 was administered intraperitoneally (100 mg/kg). The treatment was continued for the following 9 days, with 2 administrations per day of the tested product. By following the same methods, the control animals received only the vehicle (methylcellulose) used to administer the tested compound. On the tenth day from injection of the antibodies, the effects on nephritis were evaluated by measuring the proteinuria over 24 hours and expressed as a percentage of inhibition of the amount of protein excreted.

The subject of the next assay is PAN-induced nephrosis. Nature of the assay: Effects on PAN-induced nephrosis (proteinuria over 24 hours). Type of assay: in vivo, Male SD rats. To be noted: Rattus norvegicus, SD rats, 100 mg/kg ip on seventh day, read-out: percentage of inhibition of the amount of protein excreted (PAN-induced nephrosis). How it is done:
This test allows the in vivo evaluation of the effects on renal damage induced by the inflammatory response following the administration of PAN (puromycin aminonucleoside). Male SD rats weighing 180-220 g were used. The nephrosis was induced by intravenous injection of PAN (100 mg/kg). On the sixth day of administration of PAN, the presence of nephrosis was determined by measuring the amount of protein excreted in the urine over 24 hours (basal proteinuria). On the seventh day, the rats were treated intraperitoneally with Compound 2 (100 mg/kg) and for the next 24 hours the urine was collected to measure the proteinuria. By following the same method, the control animals received, intraperitoneally, only the vehicle (methylcellulose) used to administer the tested compound. The effects on the PAN-induced nephrosis were evaluated by measuring the proteinuria over 24 hours and expressed as a percentage of inhibition of the amount of protein excreted.

Another assay has as its target T1, enzyme 5-LO (Homo sapiens, UniProt P09917).
T1 construct: Human PMNL cells (polymorphonuclear leukocytes) were used; endogenous in cells; host or cells: human polymorphonuclear leukocytes (PMNL)
T1 sequence (P09917 1-674): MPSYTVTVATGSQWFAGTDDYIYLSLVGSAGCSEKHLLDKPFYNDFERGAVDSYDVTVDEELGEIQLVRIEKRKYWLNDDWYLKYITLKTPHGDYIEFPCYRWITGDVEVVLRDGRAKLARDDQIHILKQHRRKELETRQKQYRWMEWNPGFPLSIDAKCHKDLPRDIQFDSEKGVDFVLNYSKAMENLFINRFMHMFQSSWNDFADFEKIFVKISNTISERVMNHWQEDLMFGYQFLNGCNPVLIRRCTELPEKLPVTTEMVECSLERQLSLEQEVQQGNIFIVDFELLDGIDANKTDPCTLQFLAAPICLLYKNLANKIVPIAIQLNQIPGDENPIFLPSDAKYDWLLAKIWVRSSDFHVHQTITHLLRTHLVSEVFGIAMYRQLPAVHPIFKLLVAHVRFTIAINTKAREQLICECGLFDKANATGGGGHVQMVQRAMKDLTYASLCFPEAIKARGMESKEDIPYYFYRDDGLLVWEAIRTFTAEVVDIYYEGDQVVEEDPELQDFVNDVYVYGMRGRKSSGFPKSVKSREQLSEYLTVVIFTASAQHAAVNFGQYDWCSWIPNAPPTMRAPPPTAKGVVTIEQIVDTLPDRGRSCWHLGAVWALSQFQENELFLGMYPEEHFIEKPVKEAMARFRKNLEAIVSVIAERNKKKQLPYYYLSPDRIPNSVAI
Nature of the assay: Effect on the enzyme 5-LO in vitro (human PMNL cells, arachidonic acid substrate, leukotriene quantification). Type of assay: cell-based. To be noted: arachidonic acid as substrate, leukotriene (LT4) quantified. How it is done:
Human PMNL cells (polymorphonuclear leukocytes) were used.
The cells were incubated in the presence of N-(4-hydroxy-3,5-di-methylphenyl)-2-morpholin-4-yl acetamide hydrochloride (Compound 2), using arachidonic acid as reaction substrate.
The activity of the enzyme 5-LO was evaluated by quantifying leukotriene […], which is the final product of the enzymatic reaction.

The subject of assay [4] is nociceptive response induced by mechanical hyperalgesia. The assay is described as follows: Anti-nociceptive activity (carrageenan-induced mechanical hyperalgesia, analgesimeter). Type of assay: in vivo, Male CD rats. To be noted: Rattus norvegicus; CD rats, ip 2 hours after carrageenan, evaluated 1, 2 and 4 hours after treatment; read-out: ED50 (anti-nociceptive, mechanical pain threshold).

In assay [5] the test system is yeast-induced febrile response. Nature of the assay: Anti-pyretic activity (yeast-induced febrile response, rectal temperature). It is filed as in vivo, Male CD rats. The note with it: CD rats; for effect on the febrile response (rectal temperature): 30 mg/kg ip 18 hours after yeast, FIG. 1. As for the experimental part:
This test allows in vivo evaluation of the effects on the yeast-induced febrile response. Male CD rats weighing 101-125 g were used. Fevers were induced by subcutaneous injection of a 15% yeast suspension. 18 hours after the administration of yeast, a first group of animals was treated intraperitoneally (30 mg/kg) with Compound 2, while a second group of animals was treated with the Comparison Compound. A third group of control animals received intraperitoneally only the vehicle (methylcellulose) used to administer the tested compounds. For all the groups, the rectal temperature was measured 30 minutes and 1, 2 and 4 hours after the treatment.

Take `O=C1CCN(c2ccccc2)N1` [phenidone]: the “percentage of inhibition of bronchoconstriction (literature reference)” value in assay [1] is given as 86%.

By inhibition is commonly meant the relative decrease from the control value, in per cent. What is called IC50 is the concentration needed to halve the response being measured. The low end stands for greater potency, the high end for weaker potency. One may read the ED50 as the dose that gives a 50% effect, or the effect in half of the subjects. For `Cc1cc(NC(=O)CN2CCOCC2)cc(C)c1O` [Compound 2, N-(4-Hydroxy-3,5-dimethylphenyl)-2-morpholin-4-yl acetamide hydrochloride], the inhibition at 100 mg/kg was determined as 7% in assay [2], 1% in assay [3] and 2% in the assay on PAN-induced nephrosis. Also, the IC50 at enzyme 5-LO was determined as 31 µM. Also, the ED50 in assay [4] was found to be 3 mg/kg. In addition, the “duration of the anti-pyretic effects” value in assay [5] (30 mg/kg ip) is on record as “about 4 hours”. Besides, the “time to significant reduction in the febrile response after treatment” value in assay [5] (30 mg/kg ip) was not above 1 h. Also, the “effect on the febrile response (rectal temperature)” value in assay [5] is on record as “significant reduction in the febrile response”.

As for `Cc1cc(NC(=O)CCN2CCOCC2)cc(C)c1O` [Comparison Compound, N-(4-Hydroxy-3,5-dimethylphenyl)-3-morpholin-4-yl propanamide hydrochloride, reference compound], the ED50 in assay [4] is more than 100 mg/kg. The “effect on the febrile response (rectal temperature)” value in assay [5] was “incapable of reducing the febrile response”.
